Test results published in patent US20090062120A1, “Agrochemical Composition” (priority 2005, published 2009).

Tests used:
[1] = format: physicochemical; conditions: for External appearance of dilution [5% in water] / Crystal formation in dilution [5% in water; 24 hours, 30° C.] / External appearance of dilution [5% in water; 24 hours, 30° C.] / External appearance of formulation [25° C.; on day of preparation] / External appearance of formulation [after 48 hours at 0° C.]: 2,4-D isopropylamine salt 300 g/l; for External appearance of dilution [5% in water] / Crystal formation in dilution [5% in water; 24 hours, 30° C.] / External appearance of dilution [5% in water; 24 hours, 30° C.]: solvent 5% by volume; for External appearance of dilution [5% in water]: 5% (v/v) dilution in water, 500 ppm CaCO3; for Crystal formation in dilution [5% in water; 24 hours, 30° C.] / External appearance of dilution [5% in water; 24 hours, 30° C.]: 5% dilution in water; for External appearance of formulation [25° C.; on day of preparation] / External appearance of formulation [after 48 hours at 0° C.]: solvent addition 5% by volume
Text: In the form of its amine salts, 2,4-dichlorophenoxyacetic acid tends to crystallize out of concentrated solutions. It is state of the art to use an approximately 5% addition of NMP in order to prevent crystallization. In the present example the isopropylamine salt of 2,4-dichlorophenoxyacetic acid was used, 2,4-D IPA for short.
Concentrated aqueous solutions of 2,4-D in isopropylamine salt form (350 g/l) were admixed with quantities of demineralized water and of the corresponding solvent addition such that the concentration of 2,4-D isopropylamine salt was 300 g/l and that of the solvent under test was 5% v/v. Then the external appearance, instantaneously (see column 2 of Table 5) and after storage at 0° C. […] Particular emphasis was placed on any crystal formation.

[2] = cited from earlier work
[3] = Solubilities of active agrochemical substances in acetylcaprolactam
[4] = Dissolution of tebuconazole in standard aromatic solvents alone; format: physicochemical; conditions: exclusive use of Solvesso 150 or Solvesso 200, without acetylcaprolactam; 250 g/l
Text: A corresponding formulation using these solvents alone, therefore, cannot be prepared.

Row | SMILES | External appearance of dilution [5% in water] [1] | Crystal formation in dilution [5% in water; 24 hours, 30° C.] [1] | External appearance of dilution [5% in water; 24 hours, 30° C.] [1] | External appearance of formulation [25° C.; on day of preparation] [1] | External appearance of formulation [after 48 hours at 0° C.] [1] | Toxic effect observed in animal experiments [2] | Behavior compared with NMP [1] | Solubility (% by wt.) at 25° C. [3] | Dissolution at the concentration specified in Example 4 [4]
1 | COCC(C)OCC(C)OC (stereo not drawn) [Dipropylene glycol dimethyl ether] | clear | <1% | clear solution, | clear solution | clear solution | – | – | – | –
2 | CCCCCCCCCC(=O)N(C)C [Genagen 4296, N,N-dimethylcapramide] | turbid | <1% | sample separated, | clear solution | clear solution | – | – | – | –
3 | CN1CCCC1=O [N-Methylpyrrolidone, N-Methyl-2-pyrrolidone] | clear | no crystals | clear solution, | clear solution | clear solution | developmentally toxic effect | – | – | –
4 | CC(=O)N1CCCCCC1=O [Peractive LAC, acetylcaprolactam] | clear | no crystals | clear solution, | clear solution | clear solution | – | closest to NMP | – | –
5 | COCCOCCOCCOCCOC [Tetraethylene glycol dimethyl ether] | clear | <1% | clear solution, | clear solution | clear solution | – | – | – | –
6 | COCCOCCOCCOC [Triethylene glycol dimethyl ether] | clear | >1% | clear solution, | clear solution | clear solution | – | – | – | –
7 | CCC(CC)Nc1c([N+](=O)[O-])cc(C)c(C)c1[N+](=O)[O-] [pendimethalin, N-(1-ethylpropyl)-3,4-dimethyl-2,6-dinitrophenylamine] | – | – | – | – | – | – | – | 60-65 % by wt. | –
8 | COC(=O)Nc1cccc(OC(=O)Nc2cccc(C)c2)c1 [phenmedipham] | – | – | – | – | – | – | – | 15-20 % by wt. | –
9 | CC(C)(C)C(O)(CCc1ccc(Cl)cc1)Cn1cncn1 (stereo not drawn) [tebuconazole, R,S-1-p-chlorophenyl-4,4-dimethyl-3-(1H-1,2,4-triazol-1-yl-methyl)pentan-3-ol] | – | – | – | – | – | – | – | – | cannot be dissolved completely
10 | O=CNC(N1CCN(C(NC=O)C(Cl)(Cl)Cl)CC1)C(Cl)(Cl)Cl (stereo not drawn) [triforine, N,N′-[1,4-piperazinediylbis(2,2,2-trichloroethylidene)]bis-formamide] | – | – | – | – | – | – | – | 15-20 % by wt. | –
